What was measured:
EP3 receptor [1] = target: T1, EP3 receptor (Homo sapiens, UniProt P43115); assay: CHO cell cAMP assay (forskolin and sulprostone stimulated, HTRF detection); type: cell-based; settings: sulprostone 700 nM (EC80) and FSK 2 μM (EC70); read-out: CHO_cAMP IC50
T1 sequence (P43115 1-390): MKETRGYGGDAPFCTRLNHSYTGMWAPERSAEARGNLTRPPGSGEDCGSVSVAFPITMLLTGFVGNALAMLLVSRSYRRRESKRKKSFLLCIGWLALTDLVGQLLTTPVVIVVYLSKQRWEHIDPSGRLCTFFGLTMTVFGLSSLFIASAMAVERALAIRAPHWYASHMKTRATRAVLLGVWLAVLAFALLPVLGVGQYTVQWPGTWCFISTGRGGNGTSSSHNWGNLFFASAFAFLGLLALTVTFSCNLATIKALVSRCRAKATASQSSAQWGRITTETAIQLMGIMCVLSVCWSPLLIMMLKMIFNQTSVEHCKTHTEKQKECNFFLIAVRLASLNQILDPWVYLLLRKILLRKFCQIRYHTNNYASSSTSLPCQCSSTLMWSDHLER

male Sprague Dawley rats = assay: IV infused EP3 antagonists on circulating insulin and glucose in the sulprostone infusion IVGTT model; type: in vivo, rat; settings: IV bolus plus infusion at 7×Ki and 10×Ki (targeted), with 3 μg/kg/min sulprostone, SD rats
Description: IV Infused EP3 Antagonists on Circulating Insulin and Glucose in the Sulprostone Infusion IVGTT Model
Jugular vein and carotid artery cannulated male Sprague Dawley rats (˜250 g, available from Charles River) were housed one rat per suspended cage in a temperature-controlled room with 12-hour light/dark cycle. The rats were allowed ad libitum access to water and maintained on a regular diet. Animals were acclimated for minimum 5 days prior to the start of the experiment. Experimental procedures were carried out in accordance with institutional standards for animal care and were approved by the institute's animal care and use committee.
A blood sample for insulin and blood chemistry was collected at 20 min (t=−20) prior to the start of dosing with sulprostone and/or test compound (EP3 antagonist). […]
Blood samples from all animals were collected into Heparin treated tubes. Background was measured via a glucometer at the 0 and 2 min time points to ensure that the animal received the glucose bolus. Plasma insulin was measured via a Meso Scale Discovery metabolic assay (available from Meso Scale). Plasma glucose, free fatty acid (FFA), triglycerides, cholesterol and ketones were measured on an OLYMPUS AU400E chemistry analyzer. Observations on animal health were recorded throughout the procedure. […]

mEP3 = target: T2, mEP3 (Mus musculus, UniProt P30557); assay: mEP3 Ki used for dose targeting in the IVGTT model; type: binding
T2 sequence (P30557 1-365): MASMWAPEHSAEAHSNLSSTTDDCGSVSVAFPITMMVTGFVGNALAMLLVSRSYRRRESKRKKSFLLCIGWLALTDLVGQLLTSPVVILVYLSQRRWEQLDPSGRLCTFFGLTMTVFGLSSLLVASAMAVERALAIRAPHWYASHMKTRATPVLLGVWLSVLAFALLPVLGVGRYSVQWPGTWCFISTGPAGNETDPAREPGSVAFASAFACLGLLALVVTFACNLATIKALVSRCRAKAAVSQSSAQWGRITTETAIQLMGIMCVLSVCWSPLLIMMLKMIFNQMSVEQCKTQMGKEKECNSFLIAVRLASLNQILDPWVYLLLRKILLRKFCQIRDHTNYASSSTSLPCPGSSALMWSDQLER

EP3 receptor [2] = target: T1, EP3 receptor; assay: [3H]-PGE2 binding assay (EP3 competition binding, SPA beads)

IC50 (EP3 receptor [1]) [nM]	Ki (mEP3) [nM]	Ki (EP3 receptor [2]) [nM]	Structure (SMILES)	suppression of glucose stimulate insulin secretion (GSIS) by sulprostone (male Sprague Dawley rats)
> 20000	–	–	CC(C)(C)C(/C=C1/OC(=O)NC1=O)C1C=CC(c2ccc3cccc(F)c3c2)=NC1=O (mixture of isomers) [compound 275, (E)-5-(2-(6-(8-fluoronaphthalen-2-yl)-2-oxo-2,3-dihydropyridin-3-yl)-3,3-dimethylbutylidene)oxazolidine-2,4-dione]	–
658	–	487	CCn1ncc2c(F)cc(-c3[nH]c(=O)c(C(/C=C4\OC(=O)NC4=O)C(C)C)cc3Cl)cc21 (racemic) [Compound #125, 5-(2-(5-chloro-6-(1-ethyl-4-fluoro-1H-indazol-6-yl)-2-oxo-1,2-dihydropyridin-3-yl)-3-methylbutylidene) oxazolidine-2,4-dione]	–
7600	–	5650	CC(C)C(/C=C1\OC(=O)NC1=O)c1ccc(-c2ccc3c(c2)OC(F)(F)O3)[nH]c1=O (racemic) [Compound #276, (Z)-5-(2-(6-(2,2-difluorobenzo[d][1,3]dioxol-5-yl)-2-oxo-2,3-dihydropyridin-3-yl)-3-methylbutylidene)oxazolidine-2,4-dione]	–
–	–	5	CCn1ncc2c(F)cc(-c3ccc([C@]4(O)CC[C@H]5C[C@@H]4NC5=O)c(=O)[nH]3)cc21 (stereo in doubt) [Compound #300, 4-(6-(1-ethyl-4-fluoro-1H-indazol-6-yl)-2-oxo-1,2-dihydropyridin-3-yl)-4-hydroxy-6-azabicyclo[3.2.1]octan-7-one]	–
363	–	73	CCN1CCOc2cc(-c3ccc(C(/C=C4\OC(=O)NC4=O)C(C)C)c(=O)[nH]3)ccc21 (stereo not drawn) [Compound #121]	–
548	–	46	CCn1ncc2c(F)cc(-c3ccc(C(/C=C4\OC(=O)NC4=O)C4CCCCC4)c(=O)[nH]3)cc21 (stereo not drawn) [Compound #127, 5-(2-cyclohexyl-2-(6-(1-ethyl-4-fluoro-1H-indazol-6-yl)-2-oxo-1,2-dihydropyridin-3-yl)ethylidene) oxazolidine-2,4-dione]	–
218	–	54	CCN1CCOc2ccc(-c3ccc(C(/C=C4\OC(=O)NC4=O)C(C)C)c(=O)[nH]3)cc21 (stereo not drawn) [Compound #137]	–
508	–	57	CC(C)C1(c2ccc(-c3ccc4cccc(F)c4c3)[nH]c2=O)C(=O)Nc2nncn21 (stereo not drawn) [Compound #156]	–
109	–	16	O=C1NC(=O)[C@]2(CCC[C@H](c3ccc(-c4ccc5ccccc5c4)[nH]c3=O)C2)O1 [Compound #189, Syn-7-(6-(naphthalen-2-yl)-2-oxo-1,2-dihydropyridin-3-yl)-1-oxa-3-azaspiro[4.5]decane-2,4-dione]	–
92	–	27	CC(C)C(c1ccc(-c2ccc3cccc(F)c3c2)[nH]c1=O)C1OC(=O)NC1=O (stereo not drawn) [compound 60]	–
27	–	8	CC(C)C(CC1OC(=O)NC1=O)c1ccc(-c2ccc3cccc(F)c3c2)[nH]c1=O (stereo not drawn) [compound 74]	–
120	–	15	O=C1NC(=O)C2(CCCC(c3ccc(-c4ccc5ccccc5c4)[nH]c3=O)C2)O1 (stereo not drawn) [compound 188, anti-7-(6-(naphthalen-2-yl)-2-oxo-1,2-dihydropyridin-3-yl)-1-oxa-3-azaspiro[4.5]decane-2,4-dione]	–

Further lines, the compound ahead of its results:

Structure (SMILES)	IC50 (EP3 receptor [1]) [nM]	Ki (mEP3) [nM]	Ki (EP3 receptor [2]) [nM]	suppression of glucose stimulate insulin secretion (GSIS) by sulprostone (male Sprague Dawley rats)
CC(C)C(/C=C1\OC(=O)NC1=O)c1ccc(-c2ccc3cccc(F)c3c2)[nH]c1=O (racemic) [Compound #62, (Z)-5-(2-(6-(8-fluoronaphthalen-2-yl)-2-oxo-1,2-dihydropyridin-3-yl)-3-methylbutylidene)oxazolidine-2,4-dione]	–	8.6	–	reverse suppression of glucose stimulate insulin secretion (GSIS) by sulprostone
CC(C)C(/C=C1\OC(=O)NC1=O)c1ccc(-c2ccc3c(c2)OCCO3)[nH]c1=O (racemic) [Compound #85, (Z)-5-(2-(6-(2,3-dihydrobenzo[b][1,4]dioxin-6-yl)-2-oxo-2,3-dihydropyridin-3-yl)-3-methylbutylidene)oxazolidine-2,4-dione]	122	–	44	–
CCn1ncc2c(F)cc(-c3ccc(C(/C=C4\OC(=O)NC4=O)C(C)C)c(=O)[nH]3)cc21 (racemic) [Compound #94, 5-(2-(6-(1-ethyl-4-fluoro-1H-indazol-6-yl)-2-oxo-1,2-dihydropyridin-3-yl)-3-methylbutylidene)-oxazolidine-2,4-dione]	181	–	20	–
CC(C)[C@@H](c1ccc(-c2ccc3cccc(F)c3c2)[nH]c1=O)[C@H]1OC(=O)NC1=O (relative stereo) [Compound #59]	611	–	85	–
CC(C)[C@H](C[C@@H]1OC(=O)NC1=O)c1ccc(-c2ccc3cccc(F)c3c2)[nH]c1=O (relative stereo) [Compound #81]	15	–	6	–
CC(=C1OC(=O)NC1=O)C(c1ccc(-c2ccc3cccc(F)c3c2)[nH]c1=O)C(C)C (stereo not drawn) [Compound 96]	39	–	17	–
O=C1NC(=O)/C(=C\C2(c3ccc(-c4ccc5cccc(F)c5c4)[nH]c3=O)CC2)O1 [Compound #11]	55	–	28	–
CCn1cc2c(F)c(-c3ccc(C(/C=C4/OC(=O)NC4=O)(CC)CC)c(=O)[nH]3)ccc2n1 [Compound #14]	> 20000	–	> 10000	–
CCn1cnc2c(F)c(-c3ccc(C(C=C4OC(=O)NC4=O)C(C)C)c(=O)[nH]3)ccc21 (stereo not drawn) [Compound #90, 5-(2-(6-(1-ethyl-4-fluoro-1H-benzo[d]imidazol-5-yl)-2-oxo-1,2-dihydropyridin-3-yl)-3-methylbutyli-dene)oxazolidine-2,4-dione]	5430	–	633	–
CC(C)C(/C=C1\OC(=O)NC1=O)c1ccc(-c2ccc3cnsc3c2)[nH]c1=O (stereo not drawn) [Compound #93]	9940	–	1070	–
